Data: patent US11197885B2, “Collagen enhancing agent made from low acyl gellan gum, methods of making and methods of using the same” (The University of Toledo, priority 2015, dated 2021)

Experiments:
[1] = system: pCREB in mouse cortical neurons; assay: nuclear pCREB in midi-GAGR-treated mouse cortical neurons pre-treated with signaling inhibitors; type: cell-based; conditions: inhibitor 6 h (SU5402 4 μM, staurosporine 3 nM, U0126 10 μM, LY294002 20 μM, KN-62 10 μM, PF-573228 1 μM), then 1 μM midi-GAGR 48 h
Procedure: (§1) To analyze the effect of polysaccharides on neurite outgrowth, primary mouse cortical neurons were treated with vehicle (H2O) or 1 μM of dextran, alginate, or midi-GAGR, 0.01 μM of HA-GAGR, or 0.1 μM of LA-GAGR for 2 days prior to immunocytochemistry using anti-α-tubulin antibody and secondary Alexa488nm antibody. An etched grid coverslip containing 200 numbered boxes was used to select neurons objectively for image acquisition and analysis. A total of 24 boxes were randomly selected per treatment group. All the neurons having total neurite length longer than 4 times of the diameter of neuron cell body were chosen for image analysis. The total length of the neurites of each neuron was measured using Metamorph and used to calculate average total neurite length. To examine the effect of polysaccharides on the phosphorylation (activation) of nuclear CREB, neurons were stained with anti-pCREB antibody (Abcam & Santa Cruz biotechnologies, 2nd antibody with Alexa568nm), anti-α-tubulin antibody (Sigma, 2nd antibody with Alexa488nm), and DAPI (Sigma) after two-day incubation with vehicle (H2O) or 1 μM of dextran, alginate, or midi-GAGR, 0.01 μM of HA-GAGR, or 0.1 μM of LA-GAGR. […] The images of neurons on coverslips were taken by confocal microscopy at the same gain (850), offset (−0.01), and exposure time (2 sec). The intensity of the staining of nuclear pCREB was measured using Metamorph and used to calculate average intensity. In addition, the phosphorylation of CREB in the cytosols of mouse cortical neurons treated with polysaccharides were detected by immunoblotting. Primary mouse neurons were dissected from 16 mouse embryos (E17) and plated in the wells of 6-well plates (1×10^6 cells/well), differentiated for 6 days, and treated with polysaccharides for 48 h. Then, neurons were harvested and lysed in 1% Igepal CA-630 (Sigma)-containing PMEE buffer plus protease and phosphatase inhibitor cocktails (Sigma) for protein extraction. Extracted proteins were separated in 4-12% NuPAGE Bis-Tris protein gels (Life Technologies) and transferred to nitrocellulose membrane (GE Healthcare Life Science, Pittsburgh, Pa.) using a semidry blotter (Hoefer, Inc., San Francisco, Calif.). The protein bands on blots recognized by anti-pCREB (Santa Cruz Biotechnologies) and anti-CREB antibodies were detected on Amersham Hyperfilm™ ECL films (GE Healthcare Life Science) using SuperSignal® West Pico Chemiluminescent Substrate (Thermo Scientific).
Pharmacological agents were used to inhibit signaling molecules downstream of FGFR1 that mediate CREB phosphorylation. […] PF-573228 (PF, 1 μM) that inhibits FAK which sits at the bottleneck of the signaling pathway downstream of NCAM180 was also included to examine whether NCAM180 is involved in midi-GAGR-mediated CREB phosphorylation or not. […]

[2] = system: rat cortical neurons (E17, DIV6); assay: FGFR1 dependence of neuroprotection against 4HNE, LIVE/DEAD assay; type: cell-based
Source text: The protective effect of polysaccharides on primary cortical neurons from 4HNE, H2O2, and Aβ42 peptide (Sigma) was examined using LIVE/DEAD® Viability/Cytotoxicity Assay Kit (Life Technologies). Female pregnant mice (BALB/C, E17, Charles River Laboratories International, Inc.) or female pregnant SD rats (E17, bred in house) were anesthetized and dissected to obtain 8-9 embryos per animal. Cortical neurons were isolated from embryonic brains and differentiated on poly-L-lysine-coated coverslips in B27/neurobasal medium. For drug treatment before free radical treatment, mouse cortical neurons (5 days in vitro [DIV5]) were treated with vehicle (H2O), 1 μM of 5 kD dextran (Sigma), alginate (Sigma), midi-GAGR, 0.01 μM of high acyl gellan gum (HA-GAGR, CPKelco Co.), or 0.1 μM of LA-GAGR for 24 h and then treated with 10 μM 4HNE or 50 μM H2O2 for 24 h, or 2 μM Aβ42 peptide for 48 h prior to viability/cytotoxicity assay. For drug co-treatment with free radicals, rat cortical neurons (DIV5) were treated with 1 μM of dextran, alginate, or midi-GAGR, 0.01 μM of HA-GAGR, or 0.1 μM of LA-GAGR along with either 10 μM 4HNE (24 h) or 2 μM Aβ42 peptide (48 h). […]

[3] = ABTS Antioxidant Assay Kit; type: biochemical; conditions: 10 μM
Procedure: The antioxidant capacity of midi-GAGR was measured using ABTS Antioxidant Assay Kit (Zenbio Co.). […] This was slightly stronger than antioxidant capacity of LA-GAGR (10 μM LA-GAGR=15.4 μM trolox) (Table 2).

[4] = system: mouse cortical neurons (E17, DIV5); assay: LIVE/DEAD assay, pre-treatment of mouse cortical neurons before 4HNE, H2O2 or Aβ42; type: cell-based
Source text: The protective effect of polysaccharides on primary cortical neurons from 4HNE, H2O2, and Aβ42 peptide (Sigma) was examined using LIVE/DEAD® Viability/Cytotoxicity Assay Kit (Life Technologies). Female pregnant mice (BALB/C, E17, Charles River Laboratories International, Inc.) or female pregnant SD rats (E17, bred in house) were anesthetized and dissected to obtain 8-9 embryos per animal. Cortical neurons were isolated from embryonic brains and differentiated on poly-L-lysine-coated coverslips in B27/neurobasal medium. For drug treatment before free radical treatment, mouse cortical neurons (5 days in vitro [DIV5]) were treated with vehicle (H2O), 1 μM of 5 kD dextran (Sigma), alginate (Sigma), midi-GAGR, 0.01 μM of high acyl gellan gum (HA-GAGR, CPKelco Co.), or 0.1 μM of LA-GAGR for 24 h and then treated with 10 μM 4HNE or 50 μM H2O2 for 24 h, or 2 μM Aβ42 peptide for 48 h prior to viability/cytotoxicity assay. For drug co-treatment with free radicals, rat cortical neurons (DIV5) were treated with 1 μM of dextran, alginate, or midi-GAGR, 0.01 μM of HA-GAGR, or 0.1 μM of LA-GAGR along with either 10 μM 4HNE (24 h) or 2 μM Aβ42 peptide (48 h). To examine the extent to which midi-GAGR-mediated neuroprotection depends on FGFR1, rat cortical neurons (E17, DIV5) were pre-treated with 4 μM SU5402 (Sigma) for 6 h and treated with 10 μM 4HNE and either vehicle or 1 μM midi-GAGR for 24 h prior to cell viability/cytotoxicity assay. As controls, neurons were treated with SU5402, midi-GAGR, 4HNE, 4HNE plus midi-GAGR, or SU5402 plus midi-GAGR.
For cell viability/cytotoxicity measurement, neurons on glass coverslips were incubated in 1×PBS containing 2 μM calcein AM (live cells: green) and 4 μM ethidium homodimer-1 (dead cells: red) for 10 min at 37° C. Immediately thereafter, neurons were imaged by 10×objective using a fluorescence Olympus IX71 microscope (Olympus America Inc., Center Valley, Pa.) and, for the acquisition of high-quality images, using TCS SP5 multi-photon laser scanning confocal microscope.
Midi-GAGR attenuated neurite atrophy caused by free reactive radicals. It is now shown herein that midi-GAGR protect neurons from the death caused by free radical insults. The extent to which midi-GAGR protects the primary culture of rodent cortical neurons from 4HNE and H2O2 was determined. In addition to the radicals, amyloid β peptide (Aβ42) was also tested. Aβ42 peptide is a major causative factor that causes oxidative stress and neuron death. Mouse cortical neurons (E17, DIV5) were treated with 10 μM 4HNE (24 h), 50 μM H2O2 (24 h), or 2 μM Aβ42 peptide (48 h) after the treatment of the neurons with vehicle (H2O), midi-GAGR (1 μM), dextran (1 μM), alginate (1 μM), LA-GAGR (0.1 μM), or HA-GAGR (0.01 μM) for 24 h. The concentrations of 4HNE, H2O2, and Aβ42 peptide were chosen according to their patho-physiological concentrations. The concentrations of LA-GAGR and HA-GAGR were chosen because, within the same volume, the total numbers of sugar units in the polysaccharides at the concentrations are close to that of 1 μM midi-GAGR. The viability of neurons was assessed using LIVE/DEAD® Viability/Cytotoxicity Assay Kit in which membrane-permeant calcein AM is cleaved by esterase in live cells, thus yielding green fluorescence, and membrane-impermeant ethidium homodimer-1 stains the nucleic acids of plasma membrane-compromised cells with red fluorescence. The numbers of green (live) and red (dead) neurons in each condition were counted using Metamorph. Although the intensities of green fluorescent signals in neurons treated with either free radicals or Aβ42 peptide were weak, the neurons were included in the counting. About 8-9% of vehicle-treated neurons died during the process of live/dead cell assay (FIGS. 23A-23F, FIGS. 24A-24C).

[5] = system: primary mouse cortical neurons (E17, DIV4); assay: neurite outgrowth in primary mouse cortical neurons; type: cell-based; conditions: 2 days; midi-GAGR, dextran, alginate 1 μM; LA-GAGR 0.1 μM; HA-GAGR 0.01 μM
Procedure: as §1, with “Then, neurons were harvested and lysed in 1% Igepal CA-630 (Sigma)-containing PMEE buffer plus protease and phosphatase inhibitor cocktails (Sigma) for protein extraction. Extracted proteins were separated in 4-12% NuPAGE Bis-Tris protein gels (Life Technologies) and transferred to nitrocellulose membrane (GE Healthcare Life Science, Pittsburgh, Pa.) using a semidry blotter (Hoefer, Inc., San Francisco, Calif.).” left out

[6] = system: pCREB in mouse cortical neurons; assay: nuclear pCREB immunostaining in mouse cortical neurons (Example 4); type: cell-based; conditions: 48 h; midi-GAGR, alginate, dextran 1 μM; LA-GAGR 0.1 μM; HA-GAGR 0.01 μM
Procedure: (§2) To analyze the effect of polysaccharides on neurite outgrowth, primary mouse cortical neurons were treated with vehicle (H2O) or 1 μM of dextran, alginate, or midi-GAGR, 0.01 μM of HA-GAGR, or 0.1 μM of LA-GAGR for 2 days prior to immunocytochemistry using anti-α-tubulin antibody and secondary Alexa488nm antibody. An etched grid coverslip containing 200 numbered boxes was used to select neurons objectively for image acquisition and analysis. A total of 24 boxes were randomly selected per treatment group. All the neurons having total neurite length longer than 4 times of the diameter of neuron cell body were chosen for image analysis. The total length of the neurites of each neuron was measured using Metamorph and used to calculate average total neurite length. […] The intensity of the staining of nuclear pCREB was measured using Metamorph and used to calculate average intensity. In addition, the phosphorylation of CREB in the cytosols of mouse cortical neurons treated with polysaccharides were detected by immunoblotting. […] The protein bands on blots recognized by anti-pCREB (Santa Cruz Biotechnologies) and anti-CREB antibodies were detected on Amersham Hyperfilm™ ECL films (GE Healthcare Life Science) using SuperSignal® West Pico Chemiluminescent Substrate (Thermo Scientific). […]

[7] = system: pCREB in mouse cortical neurons; assay: pCREB immunoblotting of cytosols of mouse cortical neurons; type: cell-based; conditions: 48 h, same concentrations
Procedure: as §2

[8] = system: differentiated dopaminergic PC12 cells exposed to 30 μM 6-OHDA; assay: LIVE/DEAD viability of differentiated PC12 cells exposed to 6-OHDA; type: cell-based; conditions: 1 μM for 6 h, then 30 μM 6-OHDA for 24 h
Procedure: Differentiated dopaminergic PC12 cells and primary mouse embryonic cortical neurons (E17, DIV14) were treated with mock (H2O) or 1 μM of dextran, alginate, HA-GAGR, or midi-GAGR for 6 h and insulated by oxidative stressors (30 μM 6-OHDA [PC12] and 10 μM amyloid β peptide [cortical neurons]) for 24 h.

[9] = system: phosphorylated CREB in differentiated PC12 cells; assay: nuclear p-CREB immunostaining in differentiated PC12 cells; type: cell-based; conditions: 1 μM, 24 h
Procedure: (§3) Differentiated PC12 cells and mouse embryonic cortical neurons (E17, DIV14) were treated with mock, dextran, alginate, HA-GAGR, or midi-GAGR (1 μM) for 24 h and fixed in 3.7% paraformaldehyde. The fixed cells and neurons were immunostained with antibodies against α-tubulin and phosopho-CREB (p-CREB) along with DAPI (nucleus).

[10] = system: phosphorylated CREB in mouse embryonic cortical neurons; assay: nuclear p-CREB immunostaining in embryonic cortical neurons (Example 2); type: cell-based; conditions: 1 μM, 24 h
Procedure: as §3

[11] = pre-treatment 24 h (midi-GAGR, alginate, dextran 1 μM; LA-GAGR 0.1 μM; HA-GAGR 0.01 μM), then 10 μM 4HNE 24 h
[12] = pre-treatment 24 h (same concentrations), then 2 μM Aβ42 peptide 48 h
[13] = pre-treatment 24 h (same concentrations), then 50 μM H2O2 24 h

Compound	effect of inhibitor pre-treatment on average intensity of pCREB in midi-GAGR-treated neurons [1]	percent of neuron death [4, 11]	percent of neuron death [4, 12]	percent of neuron death [4, 13]	fold change in average total neurite length vs vehicle [5]	also measured
CN([C@@H](Cc1ccc(OS(=O)(=O)c2cccc3cnccc23)cc1)C(=O)N1CCN(c2ccccc2)CC1)S(=O)(=O)c1cccc2cnccc12 [KN-62]	decreased slightly but still statistically significantly	–	–	–	–	–
CS(=O)(=O)c1cccc(CNc2nc(Nc3ccc4c(c3)CCC(=O)N4)ncc2C(F)(F)F)c1 [PF-573228]	did not decrease	–	–	–	–	–
Cc1c[nH]c(/C=C2\C(=O)Nc3ccccc32)c1CCC(=O)O [SU5402]	significantly decreased	–	–	–	–	percent of dead cells ([2]; SU5402 4 μM alone, no 4HNE): did not increase; percent of dead cells ([2]; SU5402 4 μM pre-treatment 6 h, then 10 μM 4HNE): ~80%
N#CC(=C(/N)Sc1ccccc1N)/C(C#N)=C(\N)Sc1ccccc1N [U0126]	significantly decreased	–	–	–	–	–
[D-Glc(β1→4)D-GlcA(β1→4)D-Glc(β1→4)L-Rha(α1→3)]n [LA-GAGR]	–	10%	~10%	~13%	~1.6 fold	antioxidant capacity, ABTS assay [3]: 15.4 μM Trolox; average intensity of nuclear pCREB vs vehicle [6]: ~2 fold; levels of pCREB by immunoblotting vs control [7]: significantly increased
alginate	–	reduced	did not decrease	did not reduce	did not enhance neuritogenesis	6-OHDA-induced cell death [8]: did not; increase in levels of nuclear p-CREB [9]: not significantly increased; increase in levels of nuclear p-CREB [10]: not significantly increased
